Results: US20160082109A1, “COPOLYMER AND NANOPARTICLES OBTAINED THEREFROM FOR DRUG DELIVERY” (FONDAZIONE ISTITUTO ITALIANO DI TECNOLOGIA, priority 2013, published 2016)

How the values were obtained:
bEND.3 cells = experiment: Confocal microscopy of nanoparticle internalization and RhB delivery; format: cell-based, mice; details: 6 h; nanoparticles 10 μg/ml, free RhB 113 ng/ml
Protocol: Immortalized endothelial cells of mice, bEND.3 (American Type Culture Collection, Manassas, Va., USA) were cultivated in a DMEM medium with high levels of glucose in the presence of 10% of FBS, L-glutamine 2 mM, 1000 U/ml penicillin and 1 mg/ml of streptomycin. The cells split from 2 to 20 times were kept in a humidified incubator for cell cultures at 37° C. and 5%, CO2. This cell line was chosen because it is a suitable model for providing an endothelial barrier. […] The free rhodamine (113 ng/ml, the same quantity of rhodamine administered with the nanoparticles), was used as negative control for the absorption test for nanoparticles loaded with rhodamine B. […] Lysotracker-red-[…] 50 nM was added to mark the lysosomes and verify the intracellular localization of the nanoparticles. To understand the release potential by the nanoparticles, the internalization of nanoparticles loaded with RhB by bEND.3 cells was compared with the detection of fluorescent RhB not loaded on nanoparticles (FIGS. 15a and 15b respectively).

[1] = format: physicochemical
Protocol: The tests were conducted on 2±0.3 mg of polymer, placed in polypropyplene vials filled with 1 ml of deionized H2O and kept in a thermostatic bath at 37° C. for 33 days. At regular intervals the samples were withdrawn, the degradation medium was separated for evaluation of the pH while the degraded polymers were dried in a ventilated stove at 50° C. for 3 h and then analysed by gel permeation chromatography (GPC).
The pH measurements were conducted on the degradation means (deionized H2O) after pre-set times. In particular, the degradation means were withdrawn from the vials containing the polymer, prepared as reported in example 1, during the degradation tests in the previous example and the measurement was performed using a pH-meter on the samples just taken at a temperature of 37° C.

pH of the degradation means (lower values / end of the test) [1]	Molecule	RhB internalization in cells (bEND.3 cells)
–	CCN(CC)c1ccc2c(-c3ccccc3C(=O)O)c3ccc(=[N+](CC)CC)cc-3oc2c1.[Cl-] [Free RhB, rhodamine B]	not observed
comparable	polycaprolactone [PCL]	–
